Data set [1] is described as follows: Permeability of the compound in PBS/EtOH at 100 ug/ml after 10 hrs by PAMPA-BBB assay. The data set is classed as ADME. The settings on record: read-out: permeability. (PAMPA measures passive passage across an artificial lipid membrane.)
Data set [2] has as its target Cholinesterase (Homo sapiens) (UniProt P06276). The data set is described as follows: Inhibition of human serum BuChE at 10 uM using butyrylthiocholine chloride as substrate preincubated for 15 mins followed by substrate addition and measured at 1 min time interval by Ellman's method relative to control. A general note: Ellman's reagent forms a yellow product with free thiols.

In data set [3] the target is Acetylcholinesterase (Homo sapiens) (UniProt P22303). The experiment in a line: Inhibition of human erythrocyte AChE at 10 uM using acetylthiocholine chloride as substrate preincubated for 15 mins followed by substrate addition and measured at 1 min time interval by Ellman's method relative to control.
Chain of Acetylcholinesterase (Homo sapiens) (P22303 whole entry): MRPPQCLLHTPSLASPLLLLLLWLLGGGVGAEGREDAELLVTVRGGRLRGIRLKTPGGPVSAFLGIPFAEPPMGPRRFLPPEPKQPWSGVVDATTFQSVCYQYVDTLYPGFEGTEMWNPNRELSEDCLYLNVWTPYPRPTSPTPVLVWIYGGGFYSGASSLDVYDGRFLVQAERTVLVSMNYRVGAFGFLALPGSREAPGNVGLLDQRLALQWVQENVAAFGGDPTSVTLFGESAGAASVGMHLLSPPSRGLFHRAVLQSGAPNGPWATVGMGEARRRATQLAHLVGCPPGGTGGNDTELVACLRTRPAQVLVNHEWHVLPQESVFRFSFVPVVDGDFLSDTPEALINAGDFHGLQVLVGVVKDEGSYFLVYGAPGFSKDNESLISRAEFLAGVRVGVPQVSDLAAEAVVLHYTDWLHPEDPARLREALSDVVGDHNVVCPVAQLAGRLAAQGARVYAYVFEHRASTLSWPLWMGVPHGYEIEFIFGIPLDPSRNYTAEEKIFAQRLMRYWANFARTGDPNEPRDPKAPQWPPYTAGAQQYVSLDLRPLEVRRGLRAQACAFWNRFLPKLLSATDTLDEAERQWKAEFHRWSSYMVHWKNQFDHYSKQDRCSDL
For data set [4], the system named is BV-2. The data set is described as follows: Antineuroinflammatory activity in mouse BV2 cells assessed as inhibition of LPS-induced nitric oxide production pretreated for 30 mins followed by LPS-stimulation for 24 hrs by Griess assay. The data set is classed as functional, cell-based.
A further data set concerns the target Beta-secretase 1 (Homo sapiens, UniProt P56817). The experiment in a line: Inhibition of recombinant human BACE1 preincubated with enzyme for 20 mins followed by addition of Rh-EVNLDAEFK-Quencher as substrate measured after 60 mins by FRET assay.
Data set [5] relates to HT-22. The experiment in a line: Neuroprotective activity against glutamate-induced cytotoxicity in mouse HT22 cells assessed as cell viability at 5 uM measured after 24 hrs by MTT assay (reference value: 30%). It is filed as functional. The settings on record: HT-22, 24 h, read-out: Activity. For orientation: Formazan colour is commonly taken as a measure of viable cells.

The test system of data set [6] is BV-2. The experiment in a line: Antineuroinflammatory activity in mouse BV2 cells assessed as decrease in LPS-induced iNOS mRNA expression incubated for 30 mins followed by LPS stimulation for 12 hrs by qPCR method. It is filed as functional, cell-based.
Data set [7] relates to BV-2. The experiment in a line: Antineuroinflammatory activity in mouse BV2 cells assessed as decrease in LPS-induced iNOS expression incubated for 30 mins followed by LPS stimulation for 16 hrs by Western blot analysis. The data set is classed as functional, cell-based.
For data set [8], the system named is BV-2. The experiment in a line: Neuroprotective activity against glutamate-induced cell damage in […] assessed as change in cell morphology at 5 uM measured after 24 hrs. The data set is classed as functional, cell-based.
Data set [9] has as its system HT-22. The experiment in a line: Neuroprotective activity against glutamate-induced intracellular oxidative stress in mouse HT22 cells assessed as increase in GSH level at 5 uM measured after 12 hrs relative to control. The data set is classed as functional, cell-based.
Data set [10] concerns HT-22. The experiment in a line: Neuroprotective activity against glutamate-induced intracellular oxidative stress in mouse HT22 cells assessed as inhibition of ROS production at 5 uM measured after 12 hrs by DCFH-DA probe based fluorescence method relative to control. It is filed as functional, cell-based.
The test system of data set [11] is BV-2. The experiment in a line: Antineuroinflammatory activity in mouse BV2 cells assessed as decrease in LPS-induced IL-1beta expression incubated for 30 mins followed by LPS stimulation for 12 hrs by qPCR method. The data set is classed as functional, cell-based.
The subject of data set [12] is BV-2. The experiment in a line: Antineuroinflammatory activity in mouse BV2 cells assessed as decrease in LPS-induced secretion of IL-1beta incubated for 30 mins followed by LPS stimulation for 16 hrs by ELISA. The data set is classed as functional, cell-based.
The test system of data set [13] is BV-2. The experiment in a line: Antineuroinflammatory activity in mouse BV2 cells assessed as decrease in LPS-induced TNFalpha expression incubated for 30 mins followed by LPS stimulation for 12 hrs by qPCR method. It is filed as functional, cell-based.
The subject of data set [14] is BV-2. The experiment in a line: Antineuroinflammatory activity in mouse BV2 cells assessed as decrease in LPS-induced secretion of TNFalpha incubated for 30 mins followed by LPS stimulation for 16 hrs by ELISA. It is filed as functional, cell-based.

From ChEMBL document CHEMBL4340508, “Synthesis and evaluation of tetrahydroisoquinoline-benzimidazole hybrids as multifunctional agents for the treatment of Alzheimer's disease” (Eur J Med Chem, 2019) come the findings set out here.

The source made the active and inactive calls. No cut-off for these calls is given here.

Chain of Cholinesterase (Homo sapiens) (P06276 whole entry): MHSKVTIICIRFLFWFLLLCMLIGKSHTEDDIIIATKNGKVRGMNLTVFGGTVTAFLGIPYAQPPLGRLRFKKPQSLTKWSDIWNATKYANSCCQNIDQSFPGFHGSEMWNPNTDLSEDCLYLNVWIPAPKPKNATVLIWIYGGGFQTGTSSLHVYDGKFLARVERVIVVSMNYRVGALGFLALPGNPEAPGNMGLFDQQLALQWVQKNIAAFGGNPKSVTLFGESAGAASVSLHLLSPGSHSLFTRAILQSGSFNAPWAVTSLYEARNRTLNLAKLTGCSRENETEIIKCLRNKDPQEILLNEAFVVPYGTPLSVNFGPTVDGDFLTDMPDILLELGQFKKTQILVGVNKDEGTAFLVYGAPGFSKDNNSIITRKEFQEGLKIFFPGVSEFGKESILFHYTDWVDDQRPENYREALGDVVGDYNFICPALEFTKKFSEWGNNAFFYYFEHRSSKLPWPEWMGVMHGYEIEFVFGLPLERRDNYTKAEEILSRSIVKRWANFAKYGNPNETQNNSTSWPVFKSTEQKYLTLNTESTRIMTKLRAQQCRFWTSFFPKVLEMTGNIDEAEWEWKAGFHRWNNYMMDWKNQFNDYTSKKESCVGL
Chain of Beta-secretase 1 (P56817 whole entry): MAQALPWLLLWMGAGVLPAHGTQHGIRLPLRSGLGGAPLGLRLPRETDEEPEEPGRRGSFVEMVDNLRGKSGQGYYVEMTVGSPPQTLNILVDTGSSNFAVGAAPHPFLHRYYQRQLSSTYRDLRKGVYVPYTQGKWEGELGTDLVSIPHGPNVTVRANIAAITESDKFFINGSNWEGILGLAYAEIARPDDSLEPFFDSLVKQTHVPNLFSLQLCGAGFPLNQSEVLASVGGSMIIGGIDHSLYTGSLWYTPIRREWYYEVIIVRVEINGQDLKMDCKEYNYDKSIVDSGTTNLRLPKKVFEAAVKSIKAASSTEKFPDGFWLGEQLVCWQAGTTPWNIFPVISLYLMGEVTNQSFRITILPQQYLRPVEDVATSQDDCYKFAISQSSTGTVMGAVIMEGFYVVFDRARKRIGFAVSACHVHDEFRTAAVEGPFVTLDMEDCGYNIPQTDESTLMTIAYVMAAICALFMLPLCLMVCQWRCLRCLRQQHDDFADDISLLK

In the case of `FC(F)(F)c1ccc2nc(-c3cccc(N4CCc5ccccc5C4)n3)[nH]c2c1`, the Papp at 10 h, 100 ug/ml in data set [1] was 54 nm/s. Moreover, the inhibition in data set [2] was determined as 18.6%; in [3] it was 20.4%. In addition, the figures for the IC50 in the data set with BV-2 [4] and on Beta-secretase 1 were 9.33 µM and 3.6 µM, respectively.
In the case of `c1cc(-c2nc3ccccc3[nH]2)nc(N2CCc3ccccc3C2)c1`, the Papp at 10 h, 100 ug/ml in [1] amounted to 159 nm/s. The viability at 5 µM in the data set with HT-22 [5] is 80.3%. Moreover, the results for the inhibition in [2] and in [3] were 23.2% and 10.1%, respectively. Further, the IC50 in the data set on BV-2 [4] was determined as 7.33 µM.
Take `COc1ccc2c(c1)CCN(c1cccc(-c3nc4ccc(OC)cc4[nH]3)n1)C2`: the Papp at 10 h, 100 ug/ml in [1] worked out at 115 nm/s. In addition, the inhibition came out at 9.7% in data set [2] and 4.7% in data set [3]. For the same molecule, the 50% inhibitory concentration (IC50) in the data set on BV-2 [4] is greater than 10 µM.
In the case of `Fc1ccc2c(c1)CCN(c1cccc(-c3nc4ccc(F)cc4[nH]3)n1)C2`, in data set [1], the Papp at 10 h, 100 ug/ml turned out to be 140 nm/s. Moreover, in the data set with HT-22 [5], the viability at 5 µM turned out to be 71.1%. In addition, the inhibition in data set [2] was found to be 33.7%; in data set [3] it was 19.9%. Besides, the IC50 with BV-2 [4] was found to be 6.43 µM.
In the same order, the values of `COc1ccc2c(c1)CCN(c1cccc(-c3nc4ccc(OC)cc4[nH]3)c1)C2` are 76 nm/s, 93.1%, 0.3%, 6% and greater than 10 µM.
The like results for `Fc1ccc2nc(-c3cccc(N4CCc5ccccc5C4)n3)[nH]c2c1` were, in that order, 145 nm/s, 67.8%, 24.2%, 6.6% and 5.7 µM.
The like results for `Fc1cc2[nH]c(-c3cccc(N4CCc5ccccc5C4)c3)nc2cc1Cl` were, in that order, 101 nm/s, 48.9%, 0.5%, 10.9% and greater than 10 µM.
As for `FC(F)(F)c1ccc2nc(-c3cccc(N4CCc5ccccc5C4)c3)[nH]c2c1`, the Papp at 10 h, 100 ug/ml in data set [1] came to 87 nm/s. The inhibition in [2] is 11.3%; in data set [3] it was 11.9%. In addition, the IC50 in the data set with BV-2 [4] was found to be 7.72 µM.
Take `Fc1cc2nc(-c3cccc(N4CCc5ccccc5C4)n3)[nH]c2cc1F`: the Papp at 10 h, 100 ug/ml in data set [1] came to 139 nm/s. For the same molecule, the inhibition in [2] turned out to be 8.9%; in data set [3], 7.2%. Moreover, the IC50 in the data set on BV-2 [4] turned out to be 6.58 µM.
As to `COc1ccc2nc(-c3cccc(N4CCc5ccccc5C4)c3)[nH]c2c1`, in [1], the Papp at 10 h, 100 ug/ml came out at 56 nm/s. The figures for the inhibition in data set [2] and in [3] were 5.4% and 10.4%, respectively. The IC50 with BV-2 [4] is 8.28 µM.
In the same order, the values of `c1cc(-c2nc3ccccc3[nH]2)cc(N2CCc3ccccc3C2)c1` are 85 nm/s, 18.3%, 6.3% and 6.08 µM.
In the same order, the values of `Oc1ccc2nc(-c3cccc(N4CCc5ccccc5C4)c3)[nH]c2c1` are 86 nm/s, 6.8%, 11.2% and 5.95 µM.
`Oc1ccc2nc(-c3cccc(N4CCc5ccccc5C4)n3)[nH]c2c1`: the Papp at 10 h, 100 ug/ml in data set [1] stood at 138 nm/s. In addition, the viability at 5 µM with HT-22 [5] was determined as 98.8%. In addition, the results for the inhibition in data set [2] and in [3] were 45.6% and 7.5%, respectively. The half-maximal inhibitory concentration (IC50) with BV-2 [4] turned out to be 3.8 µM.
With `Clc1ccc2nc(-c3cccc(N4CCc5ccccc5C4)n3)[nH]c2c1`, the Papp at 10 h, 100 ug/ml in data set [1] came out at 167 nm/s. Besides, the inhibition in [2] was 19.8%; in [3], 24.3%. Further, the figures for the 50% inhibitory concentration (IC50) in the data set on BV-2 [4] and at Beta-secretase 1 were 6.94 µM and 1.8 µM, respectively.
As to `Clc1cc2nc(-c3cccc(N4CCc5ccccc5C4)c3)[nH]c2cc1Cl`, the Papp at 10 h, 100 ug/ml in [1] turned out to be 99 nm/s. Moreover, the results for the inhibition in [2] and in [3] were 3.7% and 16.2%, respectively. For the same molecule, in the data set on BV-2 [4], the IC50 was 7.93 µM.
The like results for `Cc1ccc2nc(-c3cccc(N4CCc5ccccc5C4)c3)[nH]c2c1` were, in that order, 96 nm/s, 20.7%, 5% and 5.7 µM.
`COc1ccc2nc(-c3cccc(N4CCc5ccccc5C4)n3)[nH]c2c1`: the Papp at 10 h, 100 ug/ml in data set [1] is 168 nm/s. The viability at 5 µM in the data set on HT-22 [5] is 91.8%. The Activity entry in the data set with BV-2 [6], in the data set on BV-2 [7], in the data set on BV-2 [11], in the data set on BV-2 [12], with BV-2 [13] and in the data set with BV-2 [14] was “Dose-dependent effect” in each case. For the same molecule, the result with BV-2 [8] and in the data set with HT-22 [9] was Active. The inhibition entry with HT-22 [10] is “Active”. Besides, the inhibition in data set [2] amounted to 35.6%; in [3] it was 4.5%. In addition, the IC50 in the data set on BV-2 [4] stood at 5.07 µM.
On to `CC(C)(C)c1ccc2nc(-c3cccc(N4CCc5ccccc5C4)n3)[nH]c2c1`, for which the inhibition in [2] is 3.8%; in data set [3], 24.6%. In addition, in the data set on BV-2 [4], the IC50 is greater than 10 µM.
Regarding `Clc1ccc2nc(-c3cccc(N4CCc5ccccc5C4)c3)[nH]c2c1`, the Papp at 10 h, 100 ug/ml in data set [1] turned out to be 49 nm/s. In the data set on HT-22 [5], the viability at 5 µM came to 67.6%. The inhibition in [2] was determined as 27.6%; in data set [3] it was 3.4%. Besides, the half-maximal inhibitory concentration (IC50) is greater than 10 µM with BV-2 [4] and 1.3 µM on Beta-secretase 1.
As to `Nc1cccc2nc(-c3cccc(N4CCc5ccccc5C4)c3)[nH]c12`, the Papp at 10 h, 100 ug/ml in data set [1] worked out at 130 nm/s. Besides, the viability at 5 µM in the data set with HT-22 [5] is 94.9%. The inhibition in data set [2] turned out to be 25.9%; in data set [3], 4.8%. Further, the IC50 in the data set on BV-2 [4] is greater than 10 µM.
For the molecule `Fc1ccc2nc(-c3cccc(N4CCc5ccccc5C4)c3)[nH]c2c1`, in data set [1], the Papp at 10 h, 100 ug/ml worked out at 126 nm/s. The results for the inhibition in data set [2] and in data set [3] were 17.1% and 9.5%, respectively. Also, the IC50 in the data set on BV-2 [4] is 5.42 µM.
As for `FC(F)(F)Oc1ccc2nc(-c3cccc(N4CCc5ccccc5C4)n3)[nH]c2c1`, the Papp at 10 h, 100 ug/ml in [1] was found to be 100 nm/s. Further, in the data set with HT-22 [5], the viability at 5 µM came to 62.1%. Besides, the inhibition was 11.7% in data set [2] and 7.6% in data set [3]. Further, the results for the IC50 with BV-2 [4] and on Beta-secretase 1 were 9.74 µM and 1.1 µM, respectively.

The term inhibition denotes the share of the control response that was lost under treatment. The term IC50 denotes the concentration at which inhibition is half-maximal.
